Data on two compounds can be found in article PMC6201930 (PLoS ONE, 2018).

Data set [1] has as its system p53 R213* UGA premature termination codon in HDQ-P1 mammary carcinoma cells. Nature of the data set: HDQ-p53UGA213 readthrough assay (full-length p53, MSD immunoassay). Type of data set: cell-based, human. The conditions noted are these: for HDQ-p53UGA213 (Maxfold): maximum readthrough activity above background. On the procedure:
We utilized HDQ-P1 mammary carcinoma cells, which are homozygous for R213*, a UGA premature termination codon in the gene for the tumor suppressor protein p53 [30]. […] Western blot hybridization and Meso Scale Discovery (MSD) immunoassay detection of p53 were done as previously described. […] Cells (45K per well) were grown in 96-well plates and treated with compounds for 24 hours. […] Cells were lysed with 60 μl per well of lysis buffer (20 mM Tris-HCL, pH 7.5, 1 mM EGTA, 1 mM EDTA,150 mM Nacl, 0.5% Triton X100) for one hour at room temperature and 30 μl of lysate per well were transferred to the coated plate and incubated overnight at 4 °C. […] Plates were then washed three times with PBS-T and 30 μl of 0.25 μ/ml goat anti-rabbit IgG-Sulfo-tag antibody (MSD) in TBS-C was added and incubated for 1 hour at room temperature. Plates were then washed three times with PBS-T and 150 μl read buffer (MSD) was added. Plates were read immediately in a SECTOR S 600 (MSD).

Data set [2] deals with tGFP-CFTR542X-HA-HIS construct (codon 542 UGA) in 293H cells. The experiment in a line: tGFP-542X readthrough assay (HA-HIS MSD immunoassay). The class given is cell-based, human.
Data set [3] is described as follows: Cytotoxicity in myoblasts. The following applies: mouse. From the text: (§1) When considering compounds for potential readthrough therapy it is important to monitor cellular and animal safety. In order to determine the most promising compounds to further evaluate in in vivo safety, we measured cytotoxicity in two different cell types. We used activated human peripheral blood mononuclear cells (PBMCs) (Table 2 and Fig 2D and 2E). PBMCs are a primary cell that when activated with phytohaemagglutinin (PHA) expand quickly and are commonly used as an in vitro surrogate for rapidly growing cells in the human body to evaluate cytotoxicity. Prior to advancing compounds into human studies, safety evaluation in rodents is performed. As an in vitro surrogate for rodent toxicity, we used primary mouse myoblasts.

Another data set deals with primary mouse myoblasts. Nature of the data set: Cytotoxicity in myoblasts. The following applies: read-out: Myoblast CC50; individual determinations (S1 File).
Source text: as §1

A short description of data set [4]: Neuromast toxicity assay (DASPEI staining). The conditions noted are these: zebrafish, zebrafish embryos 5 dpf, neuromasts (hair cells), other: embryos exposed to the drug in 24-well plates, zebrafish embryos 5 dpf.
Experimental: (§2) All neuromast cytotoxicity assays were done at Biobide–BBD Biophenix SL (Gipuzkoa, Spain). […] Compounds were tested at 5 doses. After 24 hours of exposure embryos were incubated in DASPEI (2-(4-(dimethylamino)styryl) -N-Ethylpyridinium Iodide) for neuromast staining. Images of each embryo were taken and neuromasts counted. A compound was classified as ototoxic when the number of neuromasts in the treated group was less than that in the untreated control group (One Way ANOVA, multiple comparisons vs. vehicle).
A further data set is described as follows: in vivo. The following applies: zebrafish.
Setting [5] is: concentration required to double the level of full-length p53 protein, average ± SD, at least three experiments, highest concentration 300 μM.
Setting [6] is: individual experiments (S1 File).
Setting [7] is: AVERAGE (S1 File), unit not given for EC5X.
Setting [8] is: individual experiments (S1 File), unit not printed for EC5X (EC2X of the sheet in uM).
Where [9] appears, read: maximum readthrough above background, average ± SD.

Molecules are shown by their SMILES. Several values for one entry are separate records, joined by “and”; a condition that tells them apart may be missing. Identical values can stand only once.

Experimental for in vivo: as §2

Regarding `CN[C@@H]1[C@@H](O)[C@@H](O[C@@H]2[C@@H](O)[C@H](O[C@H]3O[C@H](CO)[C@@H](O)[C@H](O)[C@H]3N)[C@@H](N)C[C@H]2N)OC[C@]1(C)O` (stereo in doubt) [Gentamicin X2, gentamicin X2], the “HDQ-p53UGA213 EC2X” value in data set [1] (AVERAGE (S1 File)) is 18.6 µM; in data set [1] (setting [5]) it was 19 ± 6 µM; in data set [1] (setting [6]) it was 19.47 µM and 16.13 µM and 19.14 µM and 12.27 µM and 19.04 µM and 21.26 µM and 22.25 µM and 17.98 µM and 6.97 µM and 32.75 µM and 17.45 µM and 17.38 µM and 19.08 µM. For the same compound, the HDQ-p53UGA213 max in data set [1] (AVERAGE (S1 File)) was 39.1; in data set [1] (individual experiments (S1 File), max fold) it was 23.4 and 60.4 and 40.4 and 95 and 8.4 and 8 and 12.7 and 10.6 and 84.8 and 5.1 and 37.4 and 60.1 and 62.2. In addition, in data set [1] (average ± SD), the “HDQ-p53UGA213 (Maxfold)” value is 39 ± 31 fold. Also, the “tGFP-542X EC2X” value in data set [2] (AVERAGE (S1 File)) was 18.6 µM; in data set [2] (setting [6]), 18.5 µM and 10.25 µM and 10.65 µM and 11.55 µM and 13.08 µM and 5.70 µM and 9.22 µM and 17.7 µM and 40.0 µM and 49.3 µM. Further, the “tGFP-542X Maxfold” value was 135.0 in data set [2] (AVERAGE (S1 File)); 235 and 85 in data set [2] (setting [6]); 135 ± 87 fold in data set [2] (setting [9]). For the same compound, the “tGFP-542X EC5X” value was 101.5 in data set [2] (setting [7]); 52 and 120 and 133 in data set [2] (setting [8]). The CC50 in data set [3] (primary mouse myoblasts, Myoblast (CC50), average ± SD) was 834 ± 623 µM; in data set [3] (primary mouse myoblasts, Myoblast CC50, AVERAGE (S1 File)), 834 µM; in the data set on primary mouse myoblasts, 614 µM and 402 µM and 481 µM and 324 µM and 1880 µM and 1300 µM. Besides, the CC50 at 24 h in data set [4] (Neuromast (CC50), 24 hours exposure, maximum of two measurements) was found to be 14 ± 7 µM; in data set [4] (Neuromast CC50, AVERAGE (S1 File)), 13.9 µM.

Consider `CN[C@@H]1[C@@H](O)[C@@H](O[C@@H]2[C@@H](O)[C@H](O[C@H]3O[C@H]([C@@H](C)O)[C@@H](O)[C@H](O)[C@H]3N)[C@@H](N)C[C@H]2N)OC[C@]1(C)O` [G418, reference compound], for which the figures for the “HDQ-p53UGA213 EC2X” value in data set [1] (AVERAGE (S1 File)) and in data set [1] (setting [5]) were 9.3 µM and 9 ± 5 µM, respectively. Moreover, the HDQ-p53UGA213 max in data set [1] (AVERAGE (S1 File)) was found to be 43.8. The “HDQ-p53UGA213 (Maxfold)” value in data set [1] (average ± SD) stood at 44 ± 19 fold. The “tGFP-542X EC2X” value in data set [2] (293H cells, 24 hours, average ± SD) was 9 ± 4 µM; in data set [2] (AVERAGE (S1 File)), 9.0 µM; in data set [2] (setting [6]), 8 µM and 15 µM and 5 µM. Besides, the “tGFP-542X Maxfold” value in data set [2] (AVERAGE (S1 File)) is 318.3; in data set [2] (setting [6]), 373 and 420 and 226 and 255; in data set [2] (setting [9]), 318 ± 93 fold. For the same compound, the “tGFP-542X EC5X” value in data set [2] (setting [7]) was 24.8; in data set [2] (setting [8]), 22 and 18 and 33 and 27. The CC50 in data set [3] (Myoblast (CC50), average ± SD) is 166 ± 100 µM; in data set [3] (Myoblast CC50, AVERAGE (S1 File)) it was 166 µM; in the data set “in vivo” (Neuromast (CC50), zebrafish embryos 5 dpf, 24 hours exposure, maximum of two measurements), 2.8 ± 1.2 µM; in “in vivo” (Neuromast CC50, individual determinations (S1 File)), 1.9 µM.
